Experimental data from the supplement of paper PMC8741786.
≈ marks a conversion by molar mass, not a printed value.

Key:
Test in all cases: minimum inhibitory concentration (ETEST)
Neisseria bacilliformis = conditions: isolate id (sample isolate): Co000780_5; population: general population; antibiotic use in previous 6 months: No
Protocol: (§1)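 Oropharyngeal Neisseria isolates from MSM and employees in Belgium were identified to species by MALDI-TOF MS. MICs of azithromycin, ceftriaxone and ciprofloxacin were determined by ETEST on GC agar after 24 h at 36.5 °C and 5-7% CO2, in mg/L. Values beyond the strip range are reported as >256 (azithromycin) or <0.016 (ceftriaxone); isolates that did not grow are NA.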

Neisseria cinerea = conditions: population: general population, antibiotic use in previous 6 months: No
Protocol: as §1

Neisseria elongata = conditions: population: general population, antibiotic use in previous 6 months: No
Protocol: as §1

Neisseria gonorrhoeae = conditions: isolate id (sample isolate): 19113052_3; population: MSM; antibiotic use in previous 6 months: No
Protocol: as §1

Neisseria oralis = conditions: population: general population, antibiotic use in previous 6 months: No
Protocol: as §1

[1] = tested on: Neisseria subflava/flavescens/perflava
Protocol: as §1

O=C(O)c1cn(C2CC2)c2cc(N3CCNCC3)c(F)cc2c1=O [ciprofloxacin]
Conditions	minimum inhibitory concentration [µg/mL]
Neisseria bacilliformis	0.125 (≈ 0.377 µM)
Neisseria gonorrhoeae	2 (≈ 6.04 µM)

Conditions	minimum inhibitory concentration [µg/mL]
Neisseria cinerea, isolate id (sample isolate): Co000769_3	0.006 (≈ 0.0181 µM)
Neisseria cinerea, isolate id (sample isolate): Co000776_4	0.032 (≈ 0.0966 µM)
Neisseria cinerea, isolate id (sample isolate): Co000776_5	0.032 (≈ 0.0966 µM)
Neisseria cinerea, isolate id (sample isolate): Co000782_1	0.012 (≈ 0.0362 µM)
Neisseria elongata, isolate id (sample isolate): Co000767_3	0.004 (≈ 0.0121 µM)
Neisseria elongata, isolate id (sample isolate): Co000780_1	0.004 (≈ 0.0121 µM)
Neisseria elongata, isolate id (sample isolate): Co000783_4	0.023 (≈ 0.0694 µM)
Neisseria oralis, isolate id (sample isolate): Co000761_7	0.016 (≈ 0.0483 µM)
Neisseria oralis, isolate id (sample isolate): Co000763_1	0.012 (≈ 0.0362 µM)
Neisseria oralis, isolate id (sample isolate): Co000766_2	0.023 (≈ 0.0694 µM)
Neisseria oralis, isolate id (sample isolate): Co000770_1	0.016 (≈ 0.0483 µM)
Neisseria oralis, isolate id (sample isolate): Co000774_1	0.023 (≈ 0.0694 µM)
Neisseria oralis, isolate id (sample isolate): Co000776_1	0.016 (≈ 0.0483 µM)
Neisseria oralis, isolate id (sample isolate): Co000776_1.1	0.012 (≈ 0.0362 µM)
Neisseria oralis, isolate id (sample isolate): Co000779_2	0.012 (≈ 0.0362 µM)
Neisseria oralis, isolate id (sample isolate): Co000790_5	0.006 (≈ 0.0181 µM)

[1]
Conditions	minimum inhibitory concentration [µg/mL]
isolate id (sample isolate): 19041762_1, population: MSM, antibiotic use in previous 6 months: Yes	1.5 (≈ 4.53 µM)
isolate id (sample isolate): 19041762_1.1, population: MSM, antibiotic use in previous 6 months: Yes	3 (≈ 9.05 µM)
isolate id (sample isolate): 19041780_1, population: MSM, antibiotic use in previous 6 months: Yes	0.25 (≈ 0.754 µM)
isolate id (sample isolate): 19042150_1, population: MSM, antibiotic use in previous 6 months: Yes	0.25 (≈ 0.754 µM)
isolate id (sample isolate): 19042150_3, population: MSM, antibiotic use in previous 6 months: Yes	0.032 (≈ 0.0966 µM)
isolate id (sample isolate): 19042756_1, population: MSM, antibiotic use in previous 6 months: Yes	1 (≈ 3.02 µM)
isolate id (sample isolate): 19042756_2, population: MSM, antibiotic use in previous 6 months: Yes	0.75 (≈ 2.26 µM)
isolate id (sample isolate): 19043201_1.1, population: MSM, antibiotic use in previous 6 months: No	0.25 (≈ 0.754 µM)
isolate id (sample isolate): 19043201_2.1, population: MSM, antibiotic use in previous 6 months: No	0.38 (≈ 1.15 µM)
isolate id (sample isolate): 19043201_3, population: MSM, antibiotic use in previous 6 months: No	0.25 (≈ 0.754 µM)
isolate id (sample isolate): 19043274_3, population: MSM, antibiotic use in previous 6 months: Yes	0.25 (≈ 0.754 µM)
isolate id (sample isolate): 19050474_1, population: MSM, antibiotic use in previous 6 months: No	0.25 (≈ 0.754 µM)
isolate id (sample isolate): 19050514_1, population: MSM, antibiotic use in previous 6 months: Yes	0.5 (≈ 1.51 µM)
isolate id (sample isolate): 19050949_1, population: MSM, antibiotic use in previous 6 months: No	0.016 (≈ 0.0483 µM)
isolate id (sample isolate): 19050949_2, population: MSM, antibiotic use in previous 6 months: No	0.38 (≈ 1.15 µM)
isolate id (sample isolate): 19050949_2.1, population: MSM, antibiotic use in previous 6 months: No	0.38 (≈ 1.15 µM)
isolate id (sample isolate): 19051904_2, population: MSM, antibiotic use in previous 6 months: Yes	0.38 (≈ 1.15 µM)
isolate id (sample isolate): 19051904_3, population: MSM, antibiotic use in previous 6 months: Yes	0.38 (≈ 1.15 µM)
isolate id (sample isolate): 19052394_1, population: MSM, antibiotic use in previous 6 months: Yes	0.19 (≈ 0.573 µM)
isolate id (sample isolate): 19052394_1.1, population: MSM, antibiotic use in previous 6 months: Yes	0.19 (≈ 0.573 µM)
isolate id (sample isolate): 19060089_1, population: MSM, antibiotic use in previous 6 months: Yes	0.38 (≈ 1.15 µM)
isolate id (sample isolate): 19062994_1, population: MSM, antibiotic use in previous 6 months: Yes	0.016 (≈ 0.0483 µM)
isolate id (sample isolate): Co000761_2, population: general population, antibiotic use in previous 6 months: No	0.012 (≈ 0.0362 µM)
isolate id (sample isolate): Co000761_3, population: general population, antibiotic use in previous 6 months: No	0.75 (≈ 2.26 µM)
isolate id (sample isolate): Co000761_5, population: general population, antibiotic use in previous 6 months: No	0.38 (≈ 1.15 µM)
isolate id (sample isolate): Co000761_6, population: general population, antibiotic use in previous 6 months: No	0.008 (≈ 0.0241 µM)
isolate id (sample isolate): Co000762_3, population: general population, antibiotic use in previous 6 months: No	0.016 (≈ 0.0483 µM)
isolate id (sample isolate): Co000762_4, population: general population, antibiotic use in previous 6 months: No	0.016 (≈ 0.0483 µM)
isolate id (sample isolate): Co000763_2, population: general population, antibiotic use in previous 6 months: No	0.008 (≈ 0.0241 µM)
isolate id (sample isolate): Co000764_1, population: general population, antibiotic use in previous 6 months: No	0.032 (≈ 0.0966 µM)
isolate id (sample isolate): Co000764_2, population: general population, antibiotic use in previous 6 months: No	0.047 (≈ 0.142 µM)
isolate id (sample isolate): Co000765_2, population: general population, antibiotic use in previous 6 months: No	0.023 (≈ 0.0694 µM)
isolate id (sample isolate): Co000765_3, population: general population, antibiotic use in previous 6 months: No	0.016 (≈ 0.0483 µM)
isolate id (sample isolate): Co000765_4, population: general population, antibiotic use in previous 6 months: No	0.012 (≈ 0.0362 µM)
isolate id (sample isolate): Co000766_1, population: general population, antibiotic use in previous 6 months: No	0.047 (≈ 0.142 µM)
isolate id (sample isolate): Co000766_3, population: general population, antibiotic use in previous 6 months: No	0.008 (≈ 0.0241 µM)
isolate id (sample isolate): Co000767_1, population: general population, antibiotic use in previous 6 months: No	0.008 (≈ 0.0241 µM)
isolate id (sample isolate): Co000767_2, population: general population, antibiotic use in previous 6 months: No	1 (≈ 3.02 µM)
isolate id (sample isolate): Co000767_4, population: general population, antibiotic use in previous 6 months: No	0.016 (≈ 0.0483 µM)
isolate id (sample isolate): Co000767_5, population: general population, antibiotic use in previous 6 months: No	0.38 (≈ 1.15 µM)
isolate id (sample isolate): Co000767_6, population: general population, antibiotic use in previous 6 months: No	0.006 (≈ 0.0181 µM)
